# Results reported in patent publication US20060069132A1, “Azolecarboxamide herbicides” (priority 2004, published 2006).
# Read-outs that look alike come from different tables or passages of the source.
# Assays:
# barnyardgrass [1] = experiment: Test B pre-/postemergence herbicide test; format: in vivo, Echinochloa crus-galli; conditions: for Plant response rating, Barnyardgrass / Plant response rating (0 to 100 scale), Barnyardgrass: preemergence; for pest or weed control at 125 g/ha / pest or weed control at 500 g/ha: Echinochloa crus-galli
# Outline: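 Formulation: non-phytotoxic solvent mix with surfactant. Timing: preemergence on seed and postemergence on 2–18 cm plants, applied concurrently. Readout after 13–15 d greenhouse: visual 0–100 control rating against controls.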
# large crabgrass = experiment: Test B pre-/postemergence herbicide test; format: in vivo, Digitaria sanguinalis; conditions: for Plant response rating, Crabgrass, Large / Plant response rating (0 to 100 scale), Crabgrass, Large: preemergence; for pest or weed control at 125 g/ha / pest or weed control at 500 g/ha: Digitaria sanguinalis
# Outline: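 Visual rating, 0 (no effect) to 100 (complete control), versus untreated controls after 13–15 d in greenhouse. Pre- and postemergence applications (postemergence plants 2–18 cm, 1–4 leaves); flooded paddy arm at 2-leaf stage. Compounds in non-phytotoxic solvent plus surfactant.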
# morningglory = experiment: Test A pre-/postemergence herbicide test; format: in vivo, Ipomoea spp.
# Outline: (§1)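 Seeds sown in sandy loam received a preemergence directed soil spray of compound in non-phytotoxic solvent with surfactant; postemergence plants (2–10 cm, one- to two-leaf stage) were sprayed to runoff at the same time. After ~10 days in greenhouse, injury was rated visually versus untreated controls (0 = no effect, 100 = complete control).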
# barnyardgrass [2] = experiment: Test A pre-/postemergence herbicide test; format: in vivo, Echinochloa crus-galli
# Outline: as §1
# [3] = 500 g ai/ha, visual rating 0-100, 0 no effect, 100 complete control
# [4] = postemergence, 125 g ai/ha, visual rating, scale 0 (no effect) to 100 (complete control)
# [5] = postemergence, 500 g ai/ha, visual rating, scale 0 (no effect) to 100 (complete control)
# [6] = 125 g ai/ha, 0 to 100 scale, 0 is no effect, 100 is complete control
# [7] = 125 g ai/ha, 0 is no effect, 100 is complete control
# [8] = Postemergence, 125 g ai/ha, scale 0 (no effect) to 100 (complete control)
# [9] = Postemergence, 500 g ai/ha, scale 0 (no effect) to 100 (complete control)
# [10] = postemergence, 125 g ai/ha, scale 0 to 100
# [11] = Postemergence, 500 g ai/ha, 0 to 100 scale, 0 no effect, 100 complete control
# [12] = Postemergence, 2000 g ai/ha, 0 to 100 scale, 0 no effect, 100 complete control
# [13] = Preemergence, 500 g ai/ha, visual rating, 0 to 100 scale (0 no effect, 100 complete control)
# [14] = Preemergence, 2000 g ai/ha, visual rating, 0 to 100 scale (0 no effect, 100 complete control)
# [15] = pre-emergence, 500 g ai/ha, visual rating, 0 = no effect, 100 = complete control, read-out: Plant response rating, Barnyardgrass
# [16] = post-emergence, postemergence, 500 g ai/ha, scale 0 to 100, 0 is no effect, 100 is complete control, read-out: Crabgrass, Large plant response rating
# [17] = pre-emergence, 500 g ai/ha, visual rating, 0 = no effect, 100 = complete control, read-out: Plant response rating, Crabgrass, Large
# [18] = preemergence, 500 g ai/ha, visual injury, 0 to 100 scale (0 no effect, 100 complete control)
SMILES,"Plant response rating, Barnyardgrass (barnyardgrass [1]; [3])",Barnyardgrass plant response rating (barnyardgrass [1]; [4]),Barnyardgrass plant response rating (barnyardgrass [1]; [5]),"Plant response rating, Barnyardgrass (barnyardgrass [1]; [6])","Plant response rating, Crabgrass, Large (large crabgrass; [3])","Crabgrass, Large plant response rating (large crabgrass; [4])","Crabgrass, Large plant response rating (large crabgrass; [5])","Plant response rating, Crabgrass, Large (large crabgrass; [6])","Plant response rating (0 to 100 scale), Barnyardgrass (barnyardgrass [1]; [7])","Plant response rating (0 to 100 scale), Crabgrass, Large (large crabgrass; [7])",Morningglory plant response rating (morningglory; [11]),"Plant response rating, Morningglory (morningglory; [12])",Morningglory plant response rating (morningglory; [14]),Barnyardgrass plant response rating (barnyardgrass [2]; [11]),"Plant response rating, Barnyardgrass (barnyardgrass [2]; [12])",Barnyardgrass plant response rating (barnyardgrass [2]; [14]),further results
CCn1nc(C(C)(C)C)cc1C(=O)Nc1cc(C(=O)NCC2CC2)ccn1 [Compound 155],90,10,20,60,100,20,40,60,,,,,,,,,
CCn1nc(C(C)(C)C)cc1C(=O)Nc1cccc(OS(=O)(=O)CC)c1 [Compound 408],,,,,,,,,70,90,,,,,,,"Barnyardgrass plant response rating (barnyardgrass [1]; [8]): 20; Barnyardgrass plant response rating (barnyardgrass [1]; [9]): 40; Crabgrass, Large plant response rating (large crabgrass; [9]): 50; Crabgrass, Large plant response rating (large crabgrass; [10]): 30"
CCn1nc(C(C)(C)C)cc1C(=O)Nc1cccc(OCCCF)c1 [Compound 138],70,10,20,10,100,20,20,40,,,15,40,45,15,30,80,Morningglory plant response rating (morningglory; [13]): 15; Barnyardgrass plant response rating (barnyardgrass [2]; [13]): 30
CCn1nc(C(C)(C)C)cc1C(=O)Nc1cccc(C(C)=O)c1 [Compound 122],90,0,20,80,100,10,10,90,,,30,65,30,75,85,95,Morningglory plant response rating (morningglory; [13]): 25; Barnyardgrass plant response rating (barnyardgrass [2]; [13]): 90
"CCOC(=O)c1cccc(NC(=O)c2nn(C(C)(C)C)nc2CC)c1 [Compound 360, ethyl 3-[[[2-(1,1-dimethylethyl)-5-ethyl-2H-1,2,3-triazol-4-yl]carbonyl]amino]benzoate]",,,,,,,,,10,40,,,,,,,"pest or weed control at 125 g/ha (barnyardgrass [1]; post-emergence, 125 g ai/ha, visual rating, scale 0 (no effect) to 100 (complete control), read-out: Barnyardgrass plant response rating): 0%; pest or weed control at 500 g/ha (barnyardgrass [1]; post-emergence, postemergence, 500 g ai/ha, scale 0 to 100, 0 is no effect, 100 is complete control, read-out: Barnyardgrass plant response rating): 30%; pest or weed control at 500 g/ha (barnyardgrass [1]; [15]): 40%; pest or weed control at 125 g/ha (large crabgrass; post-emergence, 125 g ai/ha, visual rating, scale 0 (no effect) to 100 (complete control), read-out: Crabgrass, Large plant response rating): 10%; pest or weed control at 500 g/ha (large crabgrass; [16]): 20%; pest or weed control at 500 g/ha (large crabgrass; [17]): 80%"
CCN(C(C)=O)C(=O)c1ccc(F)c(NC(=O)c2cc(C(C)(C)C)nn2CC)c1 [Compound 413],,,,,,,,,40,20,10,20,15,20,50,75,"Morningglory plant response rating (morningglory; [18]): 5; Barnyardgrass plant response rating (barnyardgrass [1]; [8]): 10; Barnyardgrass plant response rating (barnyardgrass [1]; [9]): 20; Crabgrass, Large plant response rating (large crabgrass; [9]): 20; Crabgrass, Large plant response rating (large crabgrass; [10]): 10; Barnyardgrass plant response rating (barnyardgrass [2]; [18]): 60"
"CCN(CC)C(=O)c1cncc(NC(=O)c2cc(C(C)(C)C)nn2CC)c1 [Compound 261, 5-[[[3-(1,1-dimethylethyl)-1-ethyl-1H-pyrazol-5-yl]carbonyl]amino]-N,N-diethyl-3-pyridinecarboxamide]",,,,,,,,,,,,,,,,,"pest or weed control at 125 g/ha (barnyardgrass [1]; post-emergence, postemergence, 125 g ai/ha, visual rating, scale 0 (no effect) to 100 (complete control), read-out: Barnyardgrass plant response rating): 0%; pest or weed control at 500 g/ha (barnyardgrass [1]; post-emergence, postemergence, 500 g ai/ha, visual rating, scale 0 (no effect) to 100 (complete control), read-out: Barnyardgrass plant response rating): 0%; pest or weed control at 125 g/ha (barnyardgrass [1]; pre-emergence, 125 g ai/ha, 0 = no effect, 100 = complete control, read-out: Barnyardgrass plant response rating (0 to 100 scale)): 0%; pest or weed control at 500 g/ha (barnyardgrass [1]; [15]): 20%; pest or weed control at 125 g/ha (large crabgrass; post-emergence, postemergence, 125 g ai/ha, visual rating, scale 0 (no effect) to 100 (complete control), read-out: Crabgrass, Large plant response rating): 0%; pest or weed control at 500 g/ha (large crabgrass; [16]): 10%; pest or weed control at 125 g/ha (large crabgrass; pre-emergence, 125 g ai/ha, 0 = no effect, 100 = complete control, read-out: Crabgrass, Large plant response rating (0 to 100 scale)): 50%; pest or weed control at 500 g/ha (large crabgrass; [17]): 50%"
